Consider four molecules from ChEMBL document CHEMBL1124726, “Novel [(diazomethyl)carbonyl]-1,2,3,4-tetrahydronaphthalene derivatives as potential photoaffinity ligands for the 5-HT1A receptor” (J Med Chem, 1990).

pIC50: −log10 of the molar value.

The target in assay [1] is T1, 5-hydroxytryptamine receptor 1A (Rattus norvegicus, UniProt P19327).
T1 sequence (P19327 whole entry): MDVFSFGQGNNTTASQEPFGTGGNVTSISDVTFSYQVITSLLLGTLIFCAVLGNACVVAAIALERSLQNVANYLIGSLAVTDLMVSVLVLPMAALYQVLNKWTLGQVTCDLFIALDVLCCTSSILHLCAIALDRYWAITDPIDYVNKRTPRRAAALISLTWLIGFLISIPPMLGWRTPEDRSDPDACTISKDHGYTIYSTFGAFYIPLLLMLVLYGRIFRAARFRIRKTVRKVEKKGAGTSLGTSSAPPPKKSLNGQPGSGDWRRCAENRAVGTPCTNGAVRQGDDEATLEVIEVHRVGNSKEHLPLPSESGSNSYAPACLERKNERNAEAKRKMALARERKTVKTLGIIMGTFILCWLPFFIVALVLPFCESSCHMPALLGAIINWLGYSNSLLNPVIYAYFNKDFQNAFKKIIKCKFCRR
The assay can be described thus: Binding affinity to 5-hydroxytryptamine 1A receptor in rat cortex using [3H]-8-OH- DPAT as radioligand.

Assay [2] has as its target T1, 5-hydroxytryptamine receptor 1A. Put plainly: Binding affinity to 5-hydroxytryptamine 1A receptor in rat hippocampus using [3H]-8-OH- DPAT as radioligand. Format: tissue-based.

What is called pIC50 is the IC50 on a negative log10 scale, so that one unit is a factor of ten. A higher pIC50 goes with a small IC50. As for `CCCN(CCC)C1CCc2cccc(OC(=O)[CH-][N+]#N)c2C1` (configuration not stated), the pIC50 in assay [1] is 6.97; in assay [2], 6.81.
The corresponding values for `CCCN(CCC)C1CCc2cccc(C(=O)[CH-][N+]#N)c2C1` (configuration not stated) are 7.70 and 7.62.
Take `CCCN(CCC)C1CCc2cccc(C(=O)OC)c2C1` (configuration not stated): the pIC50 in assay [1] is 8.27.
As for `CCCN(CCC)C1CCc2cccc(OCC(=O)C=[N+]=[N-])c2C1` (configuration not stated), the negative logarithm of the IC50 (pIC50) in assay [1] is 7.14; in assay [2], 7.11.
